Some results are limits rather than exact numbers.

The target in test [1] is T1, BCR-NTRK3 BaF3 cells (Homo sapiens, UniProt Q16288).
T1 construct: fused on or other part: P11274 (Breakpoint cluster region protein)
Description: BaF3 BCR-NTRK3 cell proliferation assay (ATPlite). Conditions: read-out: Inhibition of Cell Proliferation IC50, BCR/BaF3 TrkC. The test is classed as cell-based. The essentials: (§1)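 IL-3-free growth, 3-day compound exposure (8-point 1:3 titration, top 10 μM, DMSO control), 37 °C 5% CO2. BaF3 10,000 or MV-4-11 25,000 cells/well, plated overnight beforehand. Read-out ATPlite luminescence vs concentration → IC50.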
Background: ATP-based viability assays read luminescence as a measure of living cells.

The target in test [2] is T2, BCR-NTRK2 BaF3 cells (Homo sapiens, UniProt Q16620).
T2 construct: fused on or other part: P11274 (Breakpoint cluster region protein)
Nature of the test: BaF3 BCR-NTRK2 cell proliferation assay (ATPlite). Conditions: read-out: Inhibition of Cell Proliferation IC50, BCR/BaF3 TrkB. The class given is cell-based. The essentials:
as §1

For test [3], the system named is SKNSH cells. Nature of the test: SKNSH (human neuroblastoma) cell proliferation assay (ATPlite). As to conditions: SK-N-SH, read-out: Inhibition of Cell Proliferation IC50, SKNSH. The test is classed as cell-based. Summed up: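 Fms/Trk inhibitor efficacy was tested by proliferation of SKNSH neuroblastoma cells. After 3 days of compound exposure at 37° C. in 5% CO2, 20 μL per well of ATPlite 1 step reagent was added, plates sat 10 minutes at room temperature, and luminescence, proportional to cell number, was read on a Safire reader to derive IC50.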

Test [4] has as its target CYP2D6 (Homo sapiens, UniProt P10635). Nature of the test: CYP2D6 inhibition (fluorescent substrate AMMC). Conditions: read-out: Cyp IC50 2D6. The class given is in vitro ADME. The essentials:
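Test compound titrated 1:1 across ten concentrations; metabolite fluorescence measured after 37 °C incubation of 15 min (CYP1A2), 30 min (CYP2C19, CYP2D6) or 45 min (CYP2C9). IC50 from signal versus concentration.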

T2 sequence (Q16620 538-807): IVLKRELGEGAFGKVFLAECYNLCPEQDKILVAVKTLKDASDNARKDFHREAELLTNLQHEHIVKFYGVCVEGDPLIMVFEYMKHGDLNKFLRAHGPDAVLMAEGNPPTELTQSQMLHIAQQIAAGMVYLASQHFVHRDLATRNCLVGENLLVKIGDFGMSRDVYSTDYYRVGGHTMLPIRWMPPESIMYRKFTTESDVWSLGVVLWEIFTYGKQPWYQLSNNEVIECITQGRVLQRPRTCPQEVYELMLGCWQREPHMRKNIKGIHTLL
Chain of CYP2D6 (P10635 whole entry): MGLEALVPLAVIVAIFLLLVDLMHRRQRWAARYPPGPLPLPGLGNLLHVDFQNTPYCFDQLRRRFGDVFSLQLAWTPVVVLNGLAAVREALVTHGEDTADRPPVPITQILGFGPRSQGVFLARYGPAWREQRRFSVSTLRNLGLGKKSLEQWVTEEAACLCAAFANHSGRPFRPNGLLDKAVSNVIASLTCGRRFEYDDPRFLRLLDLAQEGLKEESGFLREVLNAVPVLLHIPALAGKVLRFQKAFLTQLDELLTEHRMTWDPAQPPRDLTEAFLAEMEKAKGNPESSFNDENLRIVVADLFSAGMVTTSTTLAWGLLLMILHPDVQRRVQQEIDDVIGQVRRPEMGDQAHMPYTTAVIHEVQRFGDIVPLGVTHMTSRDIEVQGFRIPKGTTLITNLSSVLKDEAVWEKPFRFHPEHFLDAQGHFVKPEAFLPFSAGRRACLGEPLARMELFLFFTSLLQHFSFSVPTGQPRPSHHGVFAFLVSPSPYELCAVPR
T1 sequence (Q16288 whole entry, the tested form may be a part): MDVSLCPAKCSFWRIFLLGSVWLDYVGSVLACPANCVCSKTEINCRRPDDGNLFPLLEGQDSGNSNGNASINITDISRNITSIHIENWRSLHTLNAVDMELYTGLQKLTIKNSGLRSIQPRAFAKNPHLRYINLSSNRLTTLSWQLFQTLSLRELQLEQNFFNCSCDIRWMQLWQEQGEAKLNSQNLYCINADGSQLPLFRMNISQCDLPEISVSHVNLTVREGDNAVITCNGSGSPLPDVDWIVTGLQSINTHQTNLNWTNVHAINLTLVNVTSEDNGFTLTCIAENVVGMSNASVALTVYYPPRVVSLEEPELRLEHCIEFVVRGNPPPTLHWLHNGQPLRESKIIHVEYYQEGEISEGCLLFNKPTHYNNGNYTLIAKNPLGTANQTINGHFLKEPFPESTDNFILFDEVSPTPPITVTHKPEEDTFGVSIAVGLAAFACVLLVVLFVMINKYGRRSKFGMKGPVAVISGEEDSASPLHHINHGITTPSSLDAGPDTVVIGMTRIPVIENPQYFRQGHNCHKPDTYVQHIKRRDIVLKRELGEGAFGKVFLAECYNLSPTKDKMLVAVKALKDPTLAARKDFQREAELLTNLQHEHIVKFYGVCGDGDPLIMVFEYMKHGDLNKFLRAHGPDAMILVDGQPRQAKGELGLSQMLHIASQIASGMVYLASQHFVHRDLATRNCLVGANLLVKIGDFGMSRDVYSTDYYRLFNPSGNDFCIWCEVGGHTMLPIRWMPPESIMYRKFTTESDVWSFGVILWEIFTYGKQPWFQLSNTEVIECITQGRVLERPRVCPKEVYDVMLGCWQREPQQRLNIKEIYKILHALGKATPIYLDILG

In the case of `COc1ccccc1Nc1ncc(Cc2c[nH]c3ncc(Cl)cc23)cn1` [Compound P-3016, [5-(5-Chloro-1H-pyrrolo[2,3-b]pyridin-3-ylmethyl)-pyrimidin-2-yl]-(2-methoxy-phenyl)-amine], the IC50 in test [1] and in test [2] was over 10000 nM each time.

In the case of `COc1ccc(Nc2ncc(Cc3c[nH]c4ncc(C)cc34)cn2)cc1` [Compound P-3021, (4-Methoxy-phenyl)-[5-(5-methyl-1H-pyrrolo[2,3-b]pyridin-3-ylmethyl)-pyrimidin-2-yl]-amine], the results for the IC50 in test [1], in test [3] and in test [2] were under 100 nM, under 1000 nM and under 100 nM, respectively.

Take `Cc1ccc(Nc2ccc(Cc3c[nH]c4ncnc(C5CC5)c34)c(F)n2)cn1` [Compound P-4030, [5-(4-Cyclopropyl-7H-pyrrolo[2,3-d]pyrimidin-5-ylmethyl)-6-fluoro-pyridin-2-yl]-(6-methyl-pyridin-3-yl)-amine]: the figures for the IC50 in test [1], in test [4] and in test [2] were under 100 nM, over 10 µM and under 100 nM, respectively.

Take `Cc1cnc2[nH]cc(Cc3cnc(Nc4ccc(C(F)(F)F)nc4)nc3)c2c1` [Compound P-3018, [5-(5-Methyl-1H-pyrrolo[2,3-b]pyridin-3-ylmethyl)-pyrimidin-2-yl]-(6-trifluoromethyl-pyridin-3-yl)-amine]: the IC50 in test [1] was under 100 nM; in test [4] it was over 10 µM; in test [2], under 100 nM.

Consider `O=C(c1ccc(Nc2ccc(C3CC3)nc2)nc1F)c1c[nH]c2ncccc12` [Compound P-3052, [6-(6-Cyclopropyl-pyridin-3-ylamino)-2-fluoro-pyridin-3-yl]-(1H-pyrrolo[2,3-b]pyridin-3-yl)-methanone], for which the results for the IC50 in test [1] and in test [4] were under 10 nM and over 10 µM, respectively.

Regarding `CCOc1ccc(Nc2ccc(Cc3c[nH]c4ncnc(C5CC5)c34)c(F)n2)cn1` [Compound P-4026, [5-(4-Cyclopropyl-7H-pyrrolo[2,3-d]pyrimidin-5-ylmethyl)-6-fluoro-pyridin-2-yl]-(6-ethoxy-pyridin-3-yl)-amine], the IC50 in test [1] and in test [2] was under 10 nM throughout.

On to `CCOc1ccc(Nc2ccc(C(=O)c3c[nH]c4ncnc(C5CC5)c34)c(F)n2)cn1` [Compound P-4027, (4-Cyclopropyl-7H-pyrrolo[2,3-d]pyrimidin-5-yl)-[6-(6-ethoxy-pyridin-3-ylamino)-2-fluoro-pyridin-3-yl]-methanone], for which the IC50 in test [1] and in test [2] was under 10 nM throughout.

As for `CCOc1ccc(Nc2ccc(C(=O)c3c[nH]c4ncnc(C)c34)c(F)n2)cn1` [Compound P-4032, [6-(6-Ethoxy-pyridin-3-ylamino)-2-fluoro-pyridin-3-yl]-(4-methyl-7H-pyrrolo[2,3-d]pyrimidin-5-yl)-methanone], the IC50 in test [1] and in test [2] was under 100 nM in each case.

`CCn1cc(Nc2ccc(Cc3c[nH]c4ncnc(C5CC5)c34)c(F)n2)cn1` [Compound P-4036, [5-(4-Cyclopropyl-7H-pyrrolo[2,3-d]pyrimidin-5-ylmethyl)-6-fluoro-pyridin-2-yl]-(1-ethyl-1H-pyrazol-4-yl)-amine]: the values for the IC50 in test [1], in test [4] and in test [2] were under 100 nM, over 10 µM and under 100 nM, respectively.

Take `CCc1ccc(Nc2ccc(Cc3c[nH]c4ncc(C)cc34)c(F)n2)cn1` [Compound P-3048, (6-Ethyl-pyridin-3-yl)-[6-fluoro-5-(5-methyl-1H-pyrrolo[2,3-b]pyridin-3-ylmethyl)-pyridin-2-yl]-amine]: the IC50 in test [4] is over 10 µM.

In the case of `CCc1ccc(Nc2ccc(C(=O)c3c[nH]c4ncc(C)cc34)c(F)n2)cn1` [Compound P-3049, [6-(6-Ethyl-pyridin-3-ylamino)-2-fluoro-pyridin-3-yl]-(5-methyl-1H-pyrrolo[2,3-b]pyridin-3-yl)-methanone], the IC50 in test [4] was over 10 µM.

With `Cc1cncc(Nc2ccc(C(=O)c3c[nH]c4ncnc(C5CC5)c34)c(F)n2)c1` [Compound P-4039, (4-Cyclopropyl-7H-pyrrolo[2,3-d]pyrimidin-5-yl)-[2-fluoro-6-(5-methyl-pyridin-3-ylamino)-pyridin-3-yl]-methanone], the IC50 in test [1] and in test [2] was under 100 nM in each case.

With `Cc1cnc2[nH]cc(Cc3ccc(Nc4ccc(C5CC5)nc4)nc3F)c2c1` [Compound P-3050, (6-Cyclopropyl-pyridin-3-yl)-[6-fluoro-5-(5-methyl-1H-pyrrolo[2,3-b]pyridin-3-ylmethyl)-pyridin-2-yl]-amine], the IC50 in test [4] was over 10 µM.

Regarding `COc1cc(Nc2ncc(Cc3c[nH]c4ncc(C)cc34)cn2)ccc1F` [Compound P-3022, (4-Fluoro-3-methoxy-phenyl)-[5-(5-methyl-1H-pyrrolo[2,3-b]pyridin-3-ylmethyl)-pyrimidin-2-yl]-amine], the IC50 in test [1] and in test [2] was under 1000 nM each time.

Take `FC1(F)CCC(Nc2ncc(Cc3c[nH]c4ncc(Cl)cc34)cn2)CC1` [Compound P-3004]: the IC50 in test [1] was under 10000 nM; in test [4], over 10 µM; in test [2], under 10000 nM.

Consider `CCc1ccc(Nc2ccc(Cc3c[nH]c4ncnc(C5CC5)c34)c(F)n2)cn1` [Compound P-4028, [5-(4-Cyclopropyl-7H-pyrrolo[2,3-d]pyrimidin-5-ylmethyl)-6-fluoro-pyridin-2-yl]-(6-ethyl-pyridin-3-yl)-amine], for which the values for the IC50 in test [1], in test [4] and in test [2] were under 10 nM, over 10 µM and under 10 nM, respectively.

As for `CCn1cc(Nc2ccc(C(=O)c3c[nH]c4ncnc(C5CC5)c34)c(F)n2)cn1` [Compound P-4037, (4-Cyclopropyl-7H-pyrrolo[2,3-d]pyrimidin-5-yl)-[6-(1-ethyl-1H-pyrazol-4-ylamino)-2-fluoro-pyridin-3-yl]-methanone], in test [4], the IC50 was over 10 µM.

Regarding `Fc1nc(Nc2ccc(C3CC3)nc2)ccc1Cc1c[nH]c2ncccc12` [Compound P-3053, (6-Cyclopropyl-pyridin-3-yl)-[6-fluoro-5-(1H-pyrrolo[2,3-b]pyridin-3-ylmethyl)-pyridin-2-yl]-amine], the IC50 in test [1] is under 10 nM; in test [4] it was over 10 µM.

`Cc1ccc(Nc2ccc(C(=O)c3c[nH]c4ncnc(C5CC5)c34)c(F)n2)cn1` [Compound P-4031, (4-Cyclopropyl-7H-pyrrolo[2,3-d]pyrimidin-5-yl)-[2-fluoro-6-(6-methyl-pyridin-3-ylamino)-pyridin-3-yl]-methanone]: the IC50 in test [1] was under 10 nM; in test [4], under 5 µM; in test [2] it was under 10 nM.

Take `Fc1cccc(Nc2ncc(Cc3c[nH]c4ncc(Cl)cc34)cn2)c1` [Compound P-3017, [5-(5-Chloro-1H-pyrrolo[2,3-b]pyridin-3-ylmethyl)-pyrimidin-2-yl]-(3-fluoro-phenyl)-amine]: the IC50 in test [1] and in test [2] was over 10000 nM throughout.

For `Clc1cnc2[nH]cc(Cc3cnc(NC4CCCCCC4)nc3)c2c1` [Compound P-3006, [5-(5-Chloro-1H-pyrrolo[2,3-b]pyridin-3-ylmethyl)-pyrimidin-2-yl]-cycloheptyl-amine], the IC50 was over 10000 nM in test [1], over 10 µM in test [4] and over 10000 nM in test [2].

For the compound `Clc1cnc2[nH]cc(Cc3cnc(NC4CCCCC4)nc3)c2c1` [Compound P-3001, [5-(5-chloro-1H-pyrrolo[2,3-b]pyridin-3-ylmethyl)-pyrimidin-2-yl]-cyclohexyl-amine], the IC50 was over 10000 nM in test [1], over 10 µM in test [4] and over 10000 nM in test [2].

On to `Cc1cnc2[nH]cc(C(=O)c3ccc(Nc4ccc(C5CC5)nc4)nc3F)c2c1` [Compound P-3051, [6-(6-Cyclopropyl-pyridin-3-ylamino)-2-fluoro-pyridin-3-yl]-(5-methyl-1H-pyrrolo[2,3-b]pyridin-3-yl)-methanone], for which, in test [4], the IC50 is over 10 µM.

As to `Clc1cnc2[nH]cc(Cc3cnc(NC4CC4)nc3)c2c1` [Compound P-3005, [5-(5-Chloro-1H-pyrrolo[2,3-b]pyridin-3-ylmethyl)-pyrimidin-2-yl]-cyclopropyl-amine], the IC50 in test [1] and in test [2] was over 10000 nM in each case.

For `Cc1cncc(Nc2ccc(Cc3c[nH]c4ncnc(C5CC5)c34)c(F)n2)c1` [Compound P-4038, [5-(4-Cyclopropyl-7H-pyrrolo[2,3-d]pyrimidin-5-ylmethyl)-6-fluoro-pyridin-2-yl]-(5-methyl-pyridin-3-yl)-amine], the values for the IC50 in test [1] and in test [2] were under 100 nM and under 1000 nM, respectively.

With `COc1ccc(Nc2ncc(Cc3c[nH]c4ncc(C)cc34)cn2)cc1F` [Compound P-3023, (3-Fluoro-4-methoxy-phenyl)-[5-(5-methyl-1H-pyrrolo[2,3-b]pyridin-3-ylmethyl)-pyrimidin-2-yl]-amine], the IC50 in test [1] and in test [2] was under 1000 nM throughout.

For `CCc1ccc(Nc2ccc(C(=O)c3c[nH]c4ncnc(C5CC5)c34)c(F)n2)cn1` [Compound P-4029, (4-Cyclopropyl-7H-pyrrolo[2,3-d]pyrimidin-5-yl)-[6-(6-ethyl-pyridin-3-ylamino)-2-fluoro-pyridin-3-yl]-methanone], the IC50 was under 10 nM in test [1], over 10 µM in test [4] and under 10 nM in test [2].

Source of the values: patent publication US8901118B2, “Compounds and methods for kinase modulation, and indications therefor” (Plexxikon Inc., priority 2010, dated 2014).
